Columns and labels:
Test in all cases: kinome screen (33PanQinase)
Format in all cases: biochemical
DNAPK = target: T1, DNAPK (Homo sapiens, UniProt P78527)
T1 construct: purchased Reaction Biology Europe GmbH (formerly ProQinase)
Protocol: (§1) The Kinome Screening was performed by Reaction Biology Europe GmbH (http://reactionbiology.com; Freiburg i. Br., Germany).

EEF2K = target: T2, EEF2K (Homo sapiens, UniProt O00418)
T2 construct: purchased Reaction Biology Europe GmbH (formerly ProQinase)
T2 sequence (O00418 1-725): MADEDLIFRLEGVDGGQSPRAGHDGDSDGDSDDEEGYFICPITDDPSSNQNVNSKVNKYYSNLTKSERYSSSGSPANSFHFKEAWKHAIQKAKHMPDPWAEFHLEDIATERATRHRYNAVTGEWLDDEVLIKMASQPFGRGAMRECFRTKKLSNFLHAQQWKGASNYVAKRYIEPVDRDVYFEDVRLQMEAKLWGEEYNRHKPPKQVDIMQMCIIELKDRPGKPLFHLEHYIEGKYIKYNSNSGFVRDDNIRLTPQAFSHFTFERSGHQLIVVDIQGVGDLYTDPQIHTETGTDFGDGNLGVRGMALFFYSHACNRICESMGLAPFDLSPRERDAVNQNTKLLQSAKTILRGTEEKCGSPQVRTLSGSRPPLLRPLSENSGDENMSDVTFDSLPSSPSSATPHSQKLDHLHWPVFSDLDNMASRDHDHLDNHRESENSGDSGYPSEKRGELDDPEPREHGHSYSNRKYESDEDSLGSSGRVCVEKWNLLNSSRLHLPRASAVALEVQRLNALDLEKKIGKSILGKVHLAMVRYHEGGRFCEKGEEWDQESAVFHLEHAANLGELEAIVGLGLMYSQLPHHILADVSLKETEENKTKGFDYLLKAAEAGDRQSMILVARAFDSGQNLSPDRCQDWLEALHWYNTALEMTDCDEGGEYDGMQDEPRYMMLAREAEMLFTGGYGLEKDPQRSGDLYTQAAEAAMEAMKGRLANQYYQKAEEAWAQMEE
Protocol: as §1

MASTL = target: T3, MASTL (Homo sapiens, UniProt Q96GX5)
T3 construct: purchased Reaction Biology Europe GmbH (formerly ProQinase)
T3 sequence (Q96GX5 1-879): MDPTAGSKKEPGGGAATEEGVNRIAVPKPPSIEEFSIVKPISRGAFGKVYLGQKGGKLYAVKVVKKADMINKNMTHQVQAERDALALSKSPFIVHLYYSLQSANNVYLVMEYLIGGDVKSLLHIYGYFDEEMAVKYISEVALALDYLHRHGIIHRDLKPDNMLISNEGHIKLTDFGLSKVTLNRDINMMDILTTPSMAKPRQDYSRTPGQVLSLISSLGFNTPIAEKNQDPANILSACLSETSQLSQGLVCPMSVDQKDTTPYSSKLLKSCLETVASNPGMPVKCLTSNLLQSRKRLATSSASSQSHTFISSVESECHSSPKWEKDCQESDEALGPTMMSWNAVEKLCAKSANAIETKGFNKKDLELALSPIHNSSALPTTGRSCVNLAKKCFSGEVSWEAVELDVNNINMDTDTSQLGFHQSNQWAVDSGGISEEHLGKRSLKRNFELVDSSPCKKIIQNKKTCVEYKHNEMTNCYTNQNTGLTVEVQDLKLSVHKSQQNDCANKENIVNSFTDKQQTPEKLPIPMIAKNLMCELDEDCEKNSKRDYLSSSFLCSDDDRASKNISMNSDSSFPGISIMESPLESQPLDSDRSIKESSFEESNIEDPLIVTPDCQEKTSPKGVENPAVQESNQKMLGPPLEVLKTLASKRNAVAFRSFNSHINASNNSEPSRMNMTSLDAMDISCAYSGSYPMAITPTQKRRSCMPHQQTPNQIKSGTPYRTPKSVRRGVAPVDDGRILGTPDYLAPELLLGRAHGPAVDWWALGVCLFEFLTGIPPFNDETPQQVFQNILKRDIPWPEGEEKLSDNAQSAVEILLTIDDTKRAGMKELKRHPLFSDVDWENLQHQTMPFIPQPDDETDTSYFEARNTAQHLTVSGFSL
Protocol: as §1

RON = target: T4, RON (Homo sapiens, UniProt Q04912)
T4 construct: purchased Reaction Biology Europe GmbH (formerly ProQinase)
T4 sequence (Q04912 25-1400): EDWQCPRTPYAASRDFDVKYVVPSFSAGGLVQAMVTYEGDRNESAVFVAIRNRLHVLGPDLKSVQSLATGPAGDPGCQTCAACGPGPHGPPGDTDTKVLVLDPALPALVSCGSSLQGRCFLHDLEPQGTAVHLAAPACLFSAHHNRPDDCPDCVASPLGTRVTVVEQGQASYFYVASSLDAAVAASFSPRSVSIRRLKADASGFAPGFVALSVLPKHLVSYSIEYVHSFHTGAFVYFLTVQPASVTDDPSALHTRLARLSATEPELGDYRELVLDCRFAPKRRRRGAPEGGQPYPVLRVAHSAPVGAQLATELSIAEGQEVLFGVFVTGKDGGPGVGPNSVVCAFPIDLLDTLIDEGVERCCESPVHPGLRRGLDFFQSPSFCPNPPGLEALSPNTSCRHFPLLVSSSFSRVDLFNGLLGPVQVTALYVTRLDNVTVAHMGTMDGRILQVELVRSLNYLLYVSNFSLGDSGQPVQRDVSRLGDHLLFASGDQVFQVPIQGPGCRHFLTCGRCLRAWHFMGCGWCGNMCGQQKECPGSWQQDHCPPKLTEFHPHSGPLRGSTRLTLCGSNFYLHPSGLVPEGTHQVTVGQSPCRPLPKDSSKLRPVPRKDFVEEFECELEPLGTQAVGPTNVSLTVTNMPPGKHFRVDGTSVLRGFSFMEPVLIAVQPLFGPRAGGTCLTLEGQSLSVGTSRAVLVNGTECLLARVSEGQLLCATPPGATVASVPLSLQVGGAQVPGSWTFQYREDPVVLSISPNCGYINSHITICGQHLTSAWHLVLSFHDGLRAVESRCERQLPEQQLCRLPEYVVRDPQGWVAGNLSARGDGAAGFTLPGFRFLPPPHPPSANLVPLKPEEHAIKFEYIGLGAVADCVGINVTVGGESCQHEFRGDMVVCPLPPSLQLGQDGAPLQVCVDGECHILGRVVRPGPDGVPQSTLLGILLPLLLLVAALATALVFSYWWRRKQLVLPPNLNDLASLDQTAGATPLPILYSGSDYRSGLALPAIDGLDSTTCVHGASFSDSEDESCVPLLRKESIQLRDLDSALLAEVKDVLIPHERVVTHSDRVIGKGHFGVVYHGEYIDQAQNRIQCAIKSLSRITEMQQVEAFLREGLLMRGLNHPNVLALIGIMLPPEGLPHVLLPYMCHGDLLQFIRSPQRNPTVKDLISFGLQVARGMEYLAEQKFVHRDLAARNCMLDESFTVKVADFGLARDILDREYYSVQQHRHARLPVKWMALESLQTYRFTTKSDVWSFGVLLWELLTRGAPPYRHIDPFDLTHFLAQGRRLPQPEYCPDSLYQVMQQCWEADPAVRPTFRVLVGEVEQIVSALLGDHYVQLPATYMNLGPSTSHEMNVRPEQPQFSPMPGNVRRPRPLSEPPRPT
Protocol: as §1

SYK = target: T5, SYK (Homo sapiens, UniProt P43405)
T5 construct: purchased Reaction Biology Europe GmbH (formerly ProQinase)
Protocol: as §1

ULK2 = target: T6, ULK2 (Homo sapiens, UniProt Q8IYT8)
T6 construct: purchased Reaction Biology Europe GmbH (formerly ProQinase)
T6 sequence (Q8IYT8 1-1036): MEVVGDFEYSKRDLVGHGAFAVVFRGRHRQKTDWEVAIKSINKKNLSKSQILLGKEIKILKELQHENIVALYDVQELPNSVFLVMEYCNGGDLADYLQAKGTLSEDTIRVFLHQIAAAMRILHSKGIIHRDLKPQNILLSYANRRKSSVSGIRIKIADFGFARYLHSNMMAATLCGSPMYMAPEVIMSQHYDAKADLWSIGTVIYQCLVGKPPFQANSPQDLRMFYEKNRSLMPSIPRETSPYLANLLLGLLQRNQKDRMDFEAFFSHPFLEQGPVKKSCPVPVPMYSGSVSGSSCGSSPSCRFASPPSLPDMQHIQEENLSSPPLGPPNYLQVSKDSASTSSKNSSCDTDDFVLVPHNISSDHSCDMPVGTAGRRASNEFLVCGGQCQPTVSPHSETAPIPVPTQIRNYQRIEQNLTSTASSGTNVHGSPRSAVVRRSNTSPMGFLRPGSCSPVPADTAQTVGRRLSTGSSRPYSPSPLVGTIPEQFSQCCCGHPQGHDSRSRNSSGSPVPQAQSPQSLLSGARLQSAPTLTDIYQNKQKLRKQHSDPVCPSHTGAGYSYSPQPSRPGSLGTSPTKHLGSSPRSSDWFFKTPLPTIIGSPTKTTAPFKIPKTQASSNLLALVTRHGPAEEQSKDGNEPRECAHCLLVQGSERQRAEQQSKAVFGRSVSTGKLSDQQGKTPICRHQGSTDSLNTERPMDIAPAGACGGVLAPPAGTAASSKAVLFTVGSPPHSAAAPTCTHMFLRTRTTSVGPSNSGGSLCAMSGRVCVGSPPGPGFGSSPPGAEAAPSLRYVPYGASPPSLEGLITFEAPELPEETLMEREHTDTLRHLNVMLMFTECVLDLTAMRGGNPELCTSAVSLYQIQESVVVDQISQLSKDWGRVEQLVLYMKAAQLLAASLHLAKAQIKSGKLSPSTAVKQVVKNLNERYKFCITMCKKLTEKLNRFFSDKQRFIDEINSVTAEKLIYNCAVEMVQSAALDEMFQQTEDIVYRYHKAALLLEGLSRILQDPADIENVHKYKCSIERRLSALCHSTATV
Protocol: as §1

WNK2 = target: T7, WNK2 (Homo sapiens, UniProt Q9Y3S1)
T7 construct: purchased Reaction Biology Europe GmbH (formerly ProQinase)
T7 sequence (Q9Y3S1 whole entry): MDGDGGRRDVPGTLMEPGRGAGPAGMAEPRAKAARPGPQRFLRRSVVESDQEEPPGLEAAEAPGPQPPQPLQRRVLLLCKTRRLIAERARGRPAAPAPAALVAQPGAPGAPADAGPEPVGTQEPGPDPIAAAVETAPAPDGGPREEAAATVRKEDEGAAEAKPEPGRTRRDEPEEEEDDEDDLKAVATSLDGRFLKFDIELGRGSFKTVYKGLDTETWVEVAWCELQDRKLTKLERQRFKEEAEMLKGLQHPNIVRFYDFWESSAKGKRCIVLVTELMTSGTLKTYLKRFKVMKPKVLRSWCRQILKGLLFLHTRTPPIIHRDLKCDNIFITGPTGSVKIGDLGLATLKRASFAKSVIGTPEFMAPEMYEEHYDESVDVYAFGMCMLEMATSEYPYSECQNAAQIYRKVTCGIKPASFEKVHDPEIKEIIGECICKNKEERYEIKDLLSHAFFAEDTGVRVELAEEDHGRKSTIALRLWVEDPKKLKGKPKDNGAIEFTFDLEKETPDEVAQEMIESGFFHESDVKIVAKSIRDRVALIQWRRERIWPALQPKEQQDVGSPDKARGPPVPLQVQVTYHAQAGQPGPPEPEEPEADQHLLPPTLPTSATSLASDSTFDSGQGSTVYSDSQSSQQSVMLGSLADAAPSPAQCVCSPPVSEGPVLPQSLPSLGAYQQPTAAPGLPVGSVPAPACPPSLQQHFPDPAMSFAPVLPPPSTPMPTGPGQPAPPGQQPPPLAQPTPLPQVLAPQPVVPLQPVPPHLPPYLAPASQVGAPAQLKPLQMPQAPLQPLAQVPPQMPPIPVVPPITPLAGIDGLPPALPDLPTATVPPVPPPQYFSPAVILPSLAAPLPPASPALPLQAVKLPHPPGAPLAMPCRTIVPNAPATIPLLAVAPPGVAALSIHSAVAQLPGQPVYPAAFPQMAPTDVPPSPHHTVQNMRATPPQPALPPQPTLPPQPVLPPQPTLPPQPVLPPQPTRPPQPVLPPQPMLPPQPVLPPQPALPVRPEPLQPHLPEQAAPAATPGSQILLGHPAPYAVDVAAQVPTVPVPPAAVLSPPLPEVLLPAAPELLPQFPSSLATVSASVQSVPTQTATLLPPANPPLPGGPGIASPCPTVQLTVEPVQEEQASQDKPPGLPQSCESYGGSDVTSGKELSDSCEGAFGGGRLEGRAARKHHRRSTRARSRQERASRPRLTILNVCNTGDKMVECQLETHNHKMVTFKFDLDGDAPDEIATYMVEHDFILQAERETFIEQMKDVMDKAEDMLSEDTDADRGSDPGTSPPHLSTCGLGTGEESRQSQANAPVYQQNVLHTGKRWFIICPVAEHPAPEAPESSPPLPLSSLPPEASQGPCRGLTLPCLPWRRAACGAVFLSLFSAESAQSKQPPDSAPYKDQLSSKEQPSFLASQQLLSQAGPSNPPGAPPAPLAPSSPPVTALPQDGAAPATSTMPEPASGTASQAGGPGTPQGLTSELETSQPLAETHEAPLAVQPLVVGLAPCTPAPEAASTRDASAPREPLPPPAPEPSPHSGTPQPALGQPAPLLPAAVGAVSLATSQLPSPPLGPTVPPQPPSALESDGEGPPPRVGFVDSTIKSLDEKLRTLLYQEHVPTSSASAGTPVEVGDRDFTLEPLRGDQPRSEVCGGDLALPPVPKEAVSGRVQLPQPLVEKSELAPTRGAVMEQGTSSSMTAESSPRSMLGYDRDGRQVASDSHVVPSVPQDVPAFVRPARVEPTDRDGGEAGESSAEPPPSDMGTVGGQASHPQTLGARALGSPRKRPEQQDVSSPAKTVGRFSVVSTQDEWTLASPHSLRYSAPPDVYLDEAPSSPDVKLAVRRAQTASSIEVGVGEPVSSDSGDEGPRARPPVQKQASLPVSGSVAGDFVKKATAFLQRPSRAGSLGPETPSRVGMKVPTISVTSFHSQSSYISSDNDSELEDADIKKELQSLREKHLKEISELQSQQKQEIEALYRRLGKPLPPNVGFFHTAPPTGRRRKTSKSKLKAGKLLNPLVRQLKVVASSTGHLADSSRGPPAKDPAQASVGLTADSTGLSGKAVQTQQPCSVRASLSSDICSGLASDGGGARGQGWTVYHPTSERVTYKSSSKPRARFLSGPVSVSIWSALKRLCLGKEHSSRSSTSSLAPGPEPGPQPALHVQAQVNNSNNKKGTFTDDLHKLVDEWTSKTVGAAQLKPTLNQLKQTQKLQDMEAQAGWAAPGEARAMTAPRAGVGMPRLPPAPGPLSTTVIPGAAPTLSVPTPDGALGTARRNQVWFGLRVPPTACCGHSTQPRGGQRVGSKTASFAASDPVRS
Protocol: as §1

SMILES | residual kinase activity (DNAPK; 0.3 µM) | residual kinase activity (EEF2K; 0.3 µM) | residual kinase activity (MASTL; 0.3 µM) | residual kinase activity (RON; 0.3 µM) | residual kinase activity (SYK; 0.3 µM) | residual kinase activity (ULK2; 0.3 µM) | residual kinase activity (WNK2; 0.3 µM) | further results
COc1ccnc2[nH]cc(-c3cc(N)nc(N)c3)c12 [meriolin 16] | 97 % of control | 89 % of control | 56 % of control | 90 % of control | 84 % of control | 54 % of control | 86 % of control | residual kinase activity (DNAPK; 0.03 µM): 100 % of control; residual kinase activity (EEF2K; 0.03 µM): 96 % of control; residual kinase activity (MASTL; 0.03 µM): 87 % of control; residual kinase activity (RON; 0.03 µM): 92 % of control; residual kinase activity (SYK; 0.03 µM): 93 % of control; residual kinase activity (ULK2; 0.03 µM): 96 % of control; residual kinase activity (WNK2; 0.03 µM): 99 % of control
c1ccc(CNc2cc(-c3c[nH]c4ncccc34)ccn2)cc1 [meriolin 36] | 71 % of control | 84 % of control | 64 % of control | 98 % of control | 90 % of control | 82 % of control | 86 % of control | residual kinase activity (DNAPK; 3 µM): 25 % of control; residual kinase activity (EEF2K; 3 µM): 97 % of control; residual kinase activity (MASTL; 3 µM): 26 % of control; residual kinase activity (RON; 3 µM): 76 % of control; residual kinase activity (SYK; 3 µM): 64 % of control; residual kinase activity (ULK2; 3 µM): 45 % of control; residual kinase activity (WNK2; 3 µM): 74 % of control
